{"source": "ChEMBL document CHEMBL1201862", "about": "“PubChem BioAssay data set” (2004)", "key": {"[1]": {"assay": "inhibitors of clade B AD8 Env fusion, dose response, cell-based, cherry-pick (AID 652062);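 note: potency is for inhibitors of fusion seen as a drop in luminescence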", "format": "functional"}, "[2]": {"target": "T1, Ubiquitin-conjugating enzyme E2 N (Homo sapiens, UniProt P61088)", "T1 sequence (P61088 whole entry)": "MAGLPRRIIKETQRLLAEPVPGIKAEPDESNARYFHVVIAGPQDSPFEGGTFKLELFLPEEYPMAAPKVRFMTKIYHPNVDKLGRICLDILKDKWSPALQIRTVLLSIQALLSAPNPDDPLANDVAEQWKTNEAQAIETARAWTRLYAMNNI", "format": "functional"}, "[3]": {"assay": "off-target signal loss in HeLa-CEM21 co-culture – HeLa F-luc CTL cells, cherry-picked, counter-screen for HIV-1 Env fusion inhibitor project, dose response (AID 652040);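 note: potency for signal decrease marking cytotoxic or nonspecific inhibition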", "format": "functional, cell-based"}, "[4]": {"assay": "cytotoxicity in HEK-293T cells, dose response, cytotoxicity control for TCR NF-kB inhibitor project, luminescence, T-cell screen hits (AID 489026);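 note: cells exposed to compound about 14 hours before the viability readout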", "format": "functional, cell-based"}, "[5]": {"assay": "Intein inhibitors as potential Tuberculosis drugs, a cytotoxicity screen. [Related pubchem assays (depositor defined):AID2221, AID2223, AID434968, AID435010, AID449749, AID449750, AID489010]", "format": "functional"}, "[6]": {"assay": "luciferase reporter signal reduction – luminescence, H4-C neuroglioblastoma cells, dose response (AID 2458);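 note: H4 neuroglioblastoma cells stably carrying a luciferase reporter gene fusion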", "format": "functional, cell-based"}, "[7]": {"assay": "inhibitors of SNCA 5'UTR-driven reporter translation, confirmation, H4 neuroglioma cells, luminescence (AID 1988)", "format": "functional, cell-based"}, "[8]": {"target": "T2, Heat shock factor protein 1 (Mus musculus, UniProt P38532)", "T2 sequence (P38532 whole entry)": "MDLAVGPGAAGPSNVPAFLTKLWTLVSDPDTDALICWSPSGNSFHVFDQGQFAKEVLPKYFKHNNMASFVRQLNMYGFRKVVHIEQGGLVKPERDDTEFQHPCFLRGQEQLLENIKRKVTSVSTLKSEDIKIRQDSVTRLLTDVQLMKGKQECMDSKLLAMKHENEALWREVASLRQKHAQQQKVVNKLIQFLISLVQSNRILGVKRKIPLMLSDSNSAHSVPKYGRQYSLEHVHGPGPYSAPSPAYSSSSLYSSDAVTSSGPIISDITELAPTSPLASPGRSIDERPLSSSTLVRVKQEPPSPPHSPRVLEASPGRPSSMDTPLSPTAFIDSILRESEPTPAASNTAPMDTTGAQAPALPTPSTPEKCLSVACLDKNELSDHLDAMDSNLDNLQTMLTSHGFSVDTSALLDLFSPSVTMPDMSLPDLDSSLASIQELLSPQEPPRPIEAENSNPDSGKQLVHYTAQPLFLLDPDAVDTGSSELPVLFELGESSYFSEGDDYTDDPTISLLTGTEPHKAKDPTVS", "assay": "inhibition of MG132-induced HSE-luciferase signal, confirmation, cell-based, NIH3T3, luminescence, dose retest (AID 2382);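 note: NIH3T3 fibroblasts with HSF1-driven luciferase reporter stressed by proteasome inhibitor MG132; luminescence from HSF1-driven luciferase expression after 8 hours of MG132 stress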", "format": "functional"}, "[9]": {"target": "1-phosphatidylinositol 4,5-bisphosphate phosphodiesterase beta-3 (Homo sapiens, UniProt Q01970)", "sequence (Q01970 whole entry)": "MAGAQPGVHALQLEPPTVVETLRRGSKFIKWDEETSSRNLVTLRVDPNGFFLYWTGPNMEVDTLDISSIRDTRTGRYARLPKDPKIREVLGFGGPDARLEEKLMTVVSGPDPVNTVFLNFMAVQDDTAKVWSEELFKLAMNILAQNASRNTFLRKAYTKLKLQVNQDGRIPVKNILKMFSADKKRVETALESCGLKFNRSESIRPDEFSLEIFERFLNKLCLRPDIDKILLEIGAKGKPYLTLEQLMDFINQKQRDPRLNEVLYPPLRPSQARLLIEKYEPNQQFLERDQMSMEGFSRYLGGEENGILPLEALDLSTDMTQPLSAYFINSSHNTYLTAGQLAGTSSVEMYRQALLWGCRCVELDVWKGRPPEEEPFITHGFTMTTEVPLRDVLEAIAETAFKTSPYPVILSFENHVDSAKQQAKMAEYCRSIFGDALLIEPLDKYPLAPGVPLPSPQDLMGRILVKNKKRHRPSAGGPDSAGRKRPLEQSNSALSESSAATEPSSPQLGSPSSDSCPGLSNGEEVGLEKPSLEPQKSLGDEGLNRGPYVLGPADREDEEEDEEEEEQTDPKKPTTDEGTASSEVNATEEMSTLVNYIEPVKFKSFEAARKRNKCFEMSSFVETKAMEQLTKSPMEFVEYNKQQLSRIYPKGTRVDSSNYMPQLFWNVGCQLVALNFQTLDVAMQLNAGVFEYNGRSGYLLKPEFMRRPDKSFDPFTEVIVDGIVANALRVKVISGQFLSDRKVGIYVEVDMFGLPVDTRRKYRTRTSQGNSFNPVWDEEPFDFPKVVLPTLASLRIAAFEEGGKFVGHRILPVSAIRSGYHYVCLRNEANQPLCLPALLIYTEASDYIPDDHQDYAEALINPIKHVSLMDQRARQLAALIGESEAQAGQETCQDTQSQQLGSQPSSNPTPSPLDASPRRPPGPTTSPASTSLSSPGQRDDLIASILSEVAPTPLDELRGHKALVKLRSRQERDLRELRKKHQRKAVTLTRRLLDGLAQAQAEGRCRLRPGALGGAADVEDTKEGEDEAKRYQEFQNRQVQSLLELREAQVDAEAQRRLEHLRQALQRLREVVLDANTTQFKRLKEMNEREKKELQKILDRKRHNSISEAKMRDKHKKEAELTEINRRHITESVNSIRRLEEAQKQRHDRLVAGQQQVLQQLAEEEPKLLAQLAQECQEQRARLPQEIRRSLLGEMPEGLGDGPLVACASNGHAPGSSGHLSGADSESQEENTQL", "assay": "Fluorescence-based biochemical high throughput dose response assay to identify inhibitors of phospholipase C isozymes (PLC-B3)."}, "Troponin, cardiac muscle": {"target": "Troponin, cardiac muscle (Homo sapiens, UniProt P19429+P45379+P63316)", "assay": "inhibitors of cardiac thin filament calcium sensitivity, dose response, biochemical, fluorescence, cardiac regulated thin filaments, triplicate IC50 (AID 504742)", "format": "protein-complex assay"}, "[10]": {"target": "Lysine-specific demethylase 4A (Homo sapiens, UniProt O75164)", "sequence (O75164 whole entry)": "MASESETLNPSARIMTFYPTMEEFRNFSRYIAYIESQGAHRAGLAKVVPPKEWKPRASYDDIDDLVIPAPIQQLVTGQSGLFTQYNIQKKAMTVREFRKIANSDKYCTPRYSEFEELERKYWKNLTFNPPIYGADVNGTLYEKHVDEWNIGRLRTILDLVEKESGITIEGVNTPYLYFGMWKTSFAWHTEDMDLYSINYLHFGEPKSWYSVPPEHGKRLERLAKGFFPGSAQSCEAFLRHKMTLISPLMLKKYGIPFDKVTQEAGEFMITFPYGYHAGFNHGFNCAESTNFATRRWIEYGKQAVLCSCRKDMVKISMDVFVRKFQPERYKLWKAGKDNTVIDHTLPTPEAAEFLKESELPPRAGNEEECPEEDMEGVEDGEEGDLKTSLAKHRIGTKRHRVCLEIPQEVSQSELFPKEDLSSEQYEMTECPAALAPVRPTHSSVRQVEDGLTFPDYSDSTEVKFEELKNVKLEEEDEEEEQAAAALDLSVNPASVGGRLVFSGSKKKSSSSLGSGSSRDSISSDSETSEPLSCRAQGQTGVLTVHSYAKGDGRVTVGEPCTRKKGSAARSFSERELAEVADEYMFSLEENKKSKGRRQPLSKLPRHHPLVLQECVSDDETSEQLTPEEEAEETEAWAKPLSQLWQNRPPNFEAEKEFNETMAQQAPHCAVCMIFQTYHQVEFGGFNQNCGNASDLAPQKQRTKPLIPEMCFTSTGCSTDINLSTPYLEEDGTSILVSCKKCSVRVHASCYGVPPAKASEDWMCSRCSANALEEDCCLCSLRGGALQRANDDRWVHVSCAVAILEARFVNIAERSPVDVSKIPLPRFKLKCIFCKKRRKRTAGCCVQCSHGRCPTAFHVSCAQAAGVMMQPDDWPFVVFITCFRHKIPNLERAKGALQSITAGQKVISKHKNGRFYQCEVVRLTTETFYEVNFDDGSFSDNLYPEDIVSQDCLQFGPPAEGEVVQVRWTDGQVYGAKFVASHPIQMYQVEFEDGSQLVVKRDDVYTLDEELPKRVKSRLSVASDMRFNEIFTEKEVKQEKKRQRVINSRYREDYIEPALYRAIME", "assay": "JMJD2A histone demethylase inhibitors, dose response, selectivity assay for GASC-1 inhibitor project, biochemical, DELFIA europium, cherry-picked samples (AID 488840)"}, "Genome polyprotein": {"target": "Genome polyprotein (dengue virus type 2, UniProt P29990)", "sequence (P29990 2492-3391 limits assumed)": "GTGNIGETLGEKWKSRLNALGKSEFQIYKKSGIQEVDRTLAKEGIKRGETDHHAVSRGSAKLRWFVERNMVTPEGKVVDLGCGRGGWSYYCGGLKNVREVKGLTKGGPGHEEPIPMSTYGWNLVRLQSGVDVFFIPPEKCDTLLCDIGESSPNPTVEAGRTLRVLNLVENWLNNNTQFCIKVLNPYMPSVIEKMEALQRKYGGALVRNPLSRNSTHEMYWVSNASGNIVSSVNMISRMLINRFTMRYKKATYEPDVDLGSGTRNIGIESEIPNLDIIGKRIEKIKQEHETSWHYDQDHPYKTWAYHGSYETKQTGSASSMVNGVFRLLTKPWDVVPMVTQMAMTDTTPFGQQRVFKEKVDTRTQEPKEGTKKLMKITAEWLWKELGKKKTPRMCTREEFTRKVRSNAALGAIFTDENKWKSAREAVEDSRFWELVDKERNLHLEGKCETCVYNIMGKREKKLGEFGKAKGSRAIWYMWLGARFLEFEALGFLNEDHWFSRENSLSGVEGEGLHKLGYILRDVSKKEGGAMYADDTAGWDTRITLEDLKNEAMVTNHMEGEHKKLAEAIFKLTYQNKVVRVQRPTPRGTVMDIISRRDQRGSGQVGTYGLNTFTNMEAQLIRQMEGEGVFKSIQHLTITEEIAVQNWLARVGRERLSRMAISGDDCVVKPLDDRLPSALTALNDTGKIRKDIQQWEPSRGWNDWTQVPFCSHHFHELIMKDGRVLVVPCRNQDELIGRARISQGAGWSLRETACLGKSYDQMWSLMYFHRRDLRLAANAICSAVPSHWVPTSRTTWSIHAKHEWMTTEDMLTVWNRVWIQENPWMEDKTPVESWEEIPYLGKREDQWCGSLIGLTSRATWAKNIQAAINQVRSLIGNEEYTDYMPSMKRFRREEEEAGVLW", "assay": "Dengue-2 NS5 methyltransferase inhibitors, primary screen, biochemical, confirmation dose response (AID 588689)", "format": "functional"}, "Caspase-6": {"target": "T3, Caspase-6 (Homo sapiens, UniProt P55212)", "T3 sequence (P55212 whole entry)": "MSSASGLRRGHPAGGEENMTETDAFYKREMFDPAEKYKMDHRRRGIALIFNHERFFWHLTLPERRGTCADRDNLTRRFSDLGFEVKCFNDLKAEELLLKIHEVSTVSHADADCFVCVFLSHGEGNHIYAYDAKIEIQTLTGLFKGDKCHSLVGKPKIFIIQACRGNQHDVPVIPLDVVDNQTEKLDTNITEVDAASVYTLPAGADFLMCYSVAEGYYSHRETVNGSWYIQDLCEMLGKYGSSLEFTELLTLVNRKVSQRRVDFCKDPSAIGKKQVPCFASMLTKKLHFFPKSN", "assay": "human caspase-6 inhibitors, dose response, biochemical, VEID-R110 fluorescence, cherry-pick (AID 720632)"}, "Caspase-8": {"target": "Caspase-8 (Homo sapiens, UniProt Q14790)", "sequence (Q14790 217-374 limits assumed)": "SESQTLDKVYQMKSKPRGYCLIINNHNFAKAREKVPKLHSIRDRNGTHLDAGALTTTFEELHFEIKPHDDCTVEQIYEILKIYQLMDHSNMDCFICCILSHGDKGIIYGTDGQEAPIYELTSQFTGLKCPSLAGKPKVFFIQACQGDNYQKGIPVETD", "sequence (Q14790 385-479 limits assumed)": "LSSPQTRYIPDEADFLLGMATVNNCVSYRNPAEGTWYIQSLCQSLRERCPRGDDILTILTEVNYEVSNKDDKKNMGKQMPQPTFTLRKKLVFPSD", "assay": "caspase-8 inhibition counter-screen, dose response, selectivity assay for caspase-6 inhibitor project, biochemical, Z-IETD-R110 fluorescence, cherry-picked samples (AID 743294)"}}, "note": "The source made the active and inactive calls.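 Throughout, for CC50: cells exposed to compound for 72 hours before luminescence readout.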", "data": [{"smiles": "CCCCCCCCCCOC(=O)C[n+]1c(COc2ccccc2OC)n(C)c2ccccc21", "values": [{"measurement": "AC50", "setting": "[1]", "value": "4.02 µM (active)"}, {"measurement": "IC50", "setting": "[2]", "value": "15.6 µM (active)"}, {"measurement": "AC50", "setting": "[3]", "value": "12.3 µM (active)"}]}, {"smiles": "Cc1oc2c(c1C(=O)NCc1cccnc1)C(=O)c1ccccc1C2=O", "values": [{"measurement": "IC50", "setting": "[4]", "value": "7.67 µM (active)"}, {"measurement": "CC50", "setting": "[5]", "value": "0.52 µM (active)"}, {"measurement": "EC50", "setting": "[6]", "value": "0.127 µM (active)"}, {"measurement": "EC50", "setting": "[7]", "value": "< 0.1 µM (active)"}, {"measurement": "EC50", "setting": "[8]", "value": "0.304 µM (active)"}]}, {"smiles": "O=c1ccc2c(-c3ccccc3S(=O)(=O)O)c3ccc(O)c(O)c3oc-2c1O", "note": "[PYROGALLOL RED]", "values": [{"measurement": "IC50", "setting": "[9]", "value": "> 40.8 µM (inactive)"}, {"measurement": "IC50", "setting": "Troponin, cardiac muscle", "value": "0.558 µM (active)"}, {"measurement": "AC50", "setting": "[10]", "value": "2.63 µM (active)"}, {"measurement": "IC50", "setting": "Genome polyprotein", "value": "4.06 µM (active)"}, {"measurement": "AC50", "setting": "Caspase-6", "value": "0.192 µM (active)"}, {"measurement": "AC50", "setting": "Caspase-8", "value": "> 70 µM (inactive)"}]}]}
